In brackets after ≈: the same amount, converted by molar mass.
Assays:
Cort Astro = experiment: DOX potency assay (MTT); type: cell-based, rat; conditions: DOX concentration, 24-hour incubation
Procedure: (§1) Encapsulation of DOX into HALNPs Doxorubicin (DOX) was encapsulated inside the aqueous core of the HALNPs as described above and in Hayward et al, Sci. Rep. 2015, 5:14683. Briefly, a vial of lyophilized HALNPs (0.5 mg lipid) was brought to room temperature, and rehydrated with 1/10th its original pre-lyophilized volume of 0.05×PBS containing 250 μg DOX. Following a thirty minute incubation time to allow for lipid membrane re-assembly, the vial was brought back to its full pre-lyophilized volume with 1×PBS and ultracentrifuged to remove non-encapsulated DOX (140,000 g, 4° C., and 1.25 hr.). The auto-fluorescent property of DOX was then used to determine the entrapment payload. […]
(§2) To determine the effect of free DOX and HALNPDOX on the cell viability of Cort Astro, MG and A172 cells, an MTT assay was utilized as described herein to calculate the lethal concentration to kill 50% of the cells (see also, e.g., Hayward et al, Sci. Rep. 2015, 5:14683; Wilson et al, Nanoscale, 2015, 7:18477-18488; Natarajan et al, PLOS One, 2015, 10:e0134541). […] The cells were then lysed with acidified IPA and the absorbance of the produced formazan crystals was measured using a Beckman Coulter AD340 plate reader (Indianapolis, Ind., USA). Percent viability was determined by normalization of the 570/620 absorbance ratio to the control untreated cells and positive control dead cells (ethanol treated).

MG = experiment: DOX potency assay (MTT); type: cell-based, mouse; conditions: DOX concentration, 24-hour incubation
Procedure: as §1, §2

A172 = experiment: DOX potency assay (MTT); type: cell-based; conditions: DOX concentration, 24-hour incubation
Procedure: as §1, §2

[1] = tested on: 21MT-1 metastatic breast cancer cells; experiment: Doxorubicin potency assay (MTT); type: cell-based, human; conditions: DOX concentration, 24 hours
Procedure: The DOX concentration lethal to 50% of the 21MT-1 cells (LC50) was determined utilizing the MTT (3-(4,5-[…])2,5-diphenyl tetrazolium bromide) assay kit from Life Technologies (Carlsbad, Calif., USA). This colorimetric assay assesses cell health as a function of the mitochondrial conversion of MTT salt to Formazan. A two-step procedure was implemented for precise loading of DOX into the HALNPs and then into the HALNP-PEM platform.
First a solution of […] of DOX in 0.05×PBS was used to rehydrate a lyophilized vial of HALNPs and excess (un-encapsulated) DOX was removed using ultracentrifugation (140,000 g, 1.25 hrs, 4° C.). […] The initial vial of HALNPs (1 mg Total Lipid) concentration was known, thus both the total amount of encapsulated DOX and lipid were fully determined. […]
21MT-1 cells were seeded at a density of 32,000 cells/well in three 48 well plates with different DOX configurations: 1) PEM platform with embedded HALNPDOX [(PLL/SPS)4.5(HALNPDOX)(PLL/SPS)2.5], 2) Bolus form HALNPDOX, and 3) free non-encapsulated DOX. […] Cells were then lysed with lysis buffer (acidified IPA) and the absorbance was measured at 570 and 620 nm using a Beckman Coulter AD340 plate reader (Indianapolis, Ind., USA). Percent viability was determined by normalization of the 570/620 absorbance ratio to the control untreated cells and positive control dead cells.

COc1cccc2c1C(=O)c1c(O)c3c(c(O)c1C2=O)C[C@@](O)(C(=O)CO)C[C@@H]3O[C@H]1C[C@H](N)[C@H](O)[C@H](C)O1 [Free DOX, doxorubicin]
LC50 values (Cort Astro): 0.322 ± 0.053 µg/mL (≈ 0.592 µM)
LC50 values (MG): 0.267 ± 0.050 µg/mL (≈ 0.491 µM)
LC50 values (A172): 0.193 ± 0.030 µg/mL (≈ 0.355 µM)
LC50 [1]: 0.191 ± 0.0301 µg/mL (≈ 0.351 µM)

From US11752219B2, “Substrate delivery of embedded liposomes” (NUtech Ventures, priority 2015, dated 2023)
